# Source: patent US20240360114A1 (SIRONAX LTD., priority 2021, published 2024)
# Tested on: HT-1080 cells
# Assay: HT-1080 cell viability assay (ferroptosis induced by RSL3, Cell Titer-Glo)
# Format: cell-based
# Details: Homo sapiens, HT-1080, 20 h, ferroptosis inducer RSL3, 20 hours, ferroptosis inhibitory activity, Table 2
# Procedure, shortened: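 Cells seeded overnight, then co-treated with RSL3 and compound (3-fold, 10-point dilution, top 1.1 μM) for 20 hours. Viability by CellTiter-Glo luminescence, normalized to untreated controls; EC50 from sigmoidal non-linear regression.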
row,Structure (SMILES),EC50 [nM]
1,"CC[C@@H]1CN(c2ccc(NC[C@H]3CC[C@H](N)CC3)c(C)n2)C[C@@H](CC)O1 [Compound 548, N-(((1r,4R)-4-aminocyclohexyl)methyl)-6-((2R,6R)-2,6-diethylmorpholino)-2-methylpyridin-3-amine]",0.1 to 100
2,CC1CC(Nc2ccc(C(C)(C)C)cc2)CCC1O (stereo not shown) [Compound 233A],100 to 1000
3,"Cc1nc(N2CC3CCC2CO3)ccc1NC1CC2(CC(N)C2)C1 (stereo not shown) [Compound 491, N2-(6-(2-oxa-5-azabicyclo[2.2.2]octan-5-yl)-2-methylpyridin-3-yl)spiro[3.3]heptane-2,6-diamine]",0.1 to 100
4,"COCCCCNc1ccc(N2CCC(C(F)(F)F)CC2)cc1 [Compound 12, N-(4-methoxybutyl)-4-(4-(trifluoromethyl)piperidin-1-yl)aniline]",0.1 to 100
5,"CC1CN(c2ccc(NC[C@H]3CC[C@H](N)CC3)cc2C#N)CC(C)O1 (stereo partly shown) [Compound 468, 5-((((1r,4r)-4-aminocyclohexyl)methyl)amino)-2-(2,6-dimethylmorpholino)-benzonitrile]",0.1 to 100
6,"Cc1nc(N2CC(C)OC(C)C2)ccc1NC1C2CC3CC1CC(N)(C3)C2 (stereo not shown) [Compound 474A, N^4-(6-(2.6-dimethylmorpholino)-2-methylpyridin-3-yl)adamantane-1,4-diamine]",0.1 to 100
7,"NC1CC2(C1)CC(Nc1ccc(N3CCC(C(F)(F)F)CC3)cc1F)C2 (stereo not shown) [Compound 364, N2-(2-fluoro-4-(4-(trifluoromethyl)piperidin-1-yl)phenyl)spiro[3.3]heptane-2,6-diamine]",0.1 to 100
8,"C[C@H]1CN(c2ccc(NC[C@H]3CC[C@H](N)CC3)cc2F)C[C@H](C)O1 [Compound 478, N-(((1r,4S)-4-aminocyclohexyl)methyl)-4-((2S,6S)-2,6-dimethylmorpholino)-3-fluoroaniline]",0.1 to 100
9,"Cc1cc(N2CCCOCC2)ccc1NC1CC2(CC(N)C2)C1 (stereo not shown) [Compound 465, N2-(2-methyl-4-(1,4-oxazepan-4-yl)phenyl)spiro[3.3]heptane-2,6-diamine]",0.1 to 100
10,"CC1CN(c2ccc(NC3CC(N)C3)c(F)c2)CC(C)O1 (stereo not shown) [Compound 462, N1-(4-(2,6-dimethylmorpholino)-2-fluorophenyl)cyclobutane-1,3-diamine]",1000 to 10000
11,"CN(C)CCOC1CCC(Nc2ccc(C(C)(C)C)cc2)CC1 (stereo not shown) [Compound 319A, 4-(tert-butyl)-N-(4-(2-(dimethylamino)ethoxy)cyclohexyl)aniline]",100 to 1000
12,"CC1CN(c2ccc3cc(NC4CC5(CC(N)C5)C4)ccc3c2)CC(C)O1 (stereo not shown) [Compound 564, N^2-(6-(2,6-dimethylmorpholino)naphthalen-2-yl)spiro[3.3]heptane-2,6-diamine]",0.1 to 100
13,"CC1CN(c2ccc(NC[C@H]3CC[C@H](N)CC3)cc2Cl)CC(C)O1 (stereo partly shown) [Compound 438, N-(((1r,4r)-4-aminocyclohexyl)methyl)-3-chloro-4-(2,6-dimethylmorpholino)aniline]",0.1 to 100
14,"CC(C)(C)c1ccc(NC2CCC(NCC(F)(F)F)CC2)cc1 (stereo not shown) [Compound 168A, N-(4-(tert-butyl)phenyl)-N-(2,2,2-trifluoroethyl)cyclohexane-1,4-diamine]",1000 to 10000
15,"CC1(C)CN(c2ccc(NC[C@H]3CC[C@H](N)CC3)cc2F)CC(C)(C)O1 [Compound 513, N-(((1r,4r)-4-aminocyclohexyl)methyl)-3-fluoro-4-(2,2,6,6-tetramethylmorpholino)aniline]",0.1 to 100
16,"CCCCC1CCN(c2ccc(NC3CCC(CN)CC3)c(C)n2)CC1 (stereo not shown) [Compound 30, N-(4-(aminomethyl)cyclohexyl)-6-(4-butylpiperidin-1-yl)-2-methylpyridin-3-amine]",0.1 to 100
17,"CC1(N)CCC(Nc2ccc3c(c2)CCC3)CC1 (stereo not shown) [Compound 99, N1-(2,3-dihydro-1H-inden-5-yl)-4-methylcyclohexane-1,4-diamine]",0.1 to 100
18,"CC1CN(c2ccc(NC3CC4(CC(N)C4)C3)cn2)CC(C)O1 (stereo not shown) [Compound 477, N2-(6-(2,6-dimethylmorpholino)pyridin-3-yl)spiro[3.3]heptane-2,6-diamine]",100 to 1000

# More lines, now with the values ahead:
row,EC50 [nM],Structure (SMILES)
1,0.1 to 100,"CC1(C)CCN(c2ccc(NC3CCC(N)CC3)cc2)CC1 (stereo not shown) [Compound 62, N1-(4-(4,4-dimethylpiperidin-1-yl)phenyl)cyclohexane-1,4-diamine]"
2,0.1 to 100,"CC(C)(C)c1ccc(NC[C@H]2CC[C@@H](N)CC2)cc1 [Compound 288, N-(((1s, 4s)-4-aminocyclohexyl)methyl)-4-(tert-butyl)aniline]"
3,0.1 to 100,"O=C(NCC1CCC(Nc2ccc(N3CCC(C(F)(F)F)CC3)cc2)CC1)C1CCNC1 (stereo not shown) [Compound 19, N-((4-((4-(4-(trifluoromethyl)piperidin-1-yl)phenyl)amino)cyclohexyl)methyl)pyrrolidine-3-car boxamide]"
4,0.1 to 100,"NC1CCC(Nc2ccc(N3CCC(C(F)(F)F)CC3)cc2OCCO)CC1 (stereo not shown) [Compound 485, 2-(2-((4-aminocyclohexyl)amino)-5-(4-(trifluoromethyl)piperidin-1-yl)phenoxy) ethan-1-ol]"
5,0.1 to 100,"CCN1CCC(Nc2ccc(C3CCCCC3)cc2)CC1 [Compound 72, N-(4-cyclohexylphenyl)-1-ethylpiperidin-4-amine]"
6,0.1 to 100,"CN(C)C1CCC(Nc2ccc(C3CCC(C)(C)CC3)cc2)CC1 (single isomer, unassigned) [Compound 91A, N1-(4-(4,4-dimethylcyclohexyl)phenyl)-N4,N4-dimethylcyclohexane-1,4-diamine]"
7,0.1 to 100,"CC1CCN(c2ccc(NC3CCC(N)CC3)cc2)CC1 (stereo not shown) [Compound 60, N1-(4-(4-methylpiperidin-1-yl)phenyl)cyclohexane-1,4-diamine]"
8,1000 to 10000,"O=C(O)C1CCC(Nc2ccc(N3CCC(C(F)(F)F)CC3)cc2)CC1 (stereo not shown) [Compound 9, 4-((4-(4-(trifluoromethyl)piperidin-1-yl)phenyl)amino)cyclohexane-1-carboxylic acid]"
9,100 to 1000,CC(C)(C)c1ccc(NC2CCC(NS(N)(=O)=O)CC2)cc1 (stereo not shown) [Compound 259A]
10,0.1 to 100,"CCCc1ccc(NC[C@H]2CC[C@H](N)CC2)cc1 [Compound 315, N-(((1r,4r)-4-aminocyclohexyl)methyl)-4-propylaniline]"
11,1000 to 10000,"NC1CCC(Nc2ccc3c(c2)OCC3)CC1 (stereo not shown) [Compound 166, N1-(2,3-dihydrobenzofuran-6-yl)cyclohexane-1,4-diamine]"
12,0.1 to 100,"CC(C)(C)c1ccc(NC2CCC(NC(=O)C3CNCCN3)CC2)cc1 (stereo not shown) [Compound 215, N-(4-((4-(tert-butyl)phenyl)amino)cyclohexyl) piperazine-2-carboxamide]"
13,100 to 1000,"CN1CCC(Nc2ccc(N3CCC(C(F)(F)F)CC3)cc2)CC1=O (stereo not shown) [Compound 27, 1-methyl-4-((4-(4-(trifluoromethyl)piperidin-1-yl)phenyl)amino)piperidin-2-one]"
14,0.1 to 100,"NC1CCCCC1Nc1ccc(N2CCC(C(F)(F)F)CC2)cc1 (stereo not shown) [Compound 402, N1-(4-(4-(trifluoromethyl)piperidin-1-yl)phenyl)cyclohexane-1,2-diamine]"
15,100 to 1000,"CC1(C)CCC(c2ccc(NC3CCS(=O)(=O)CC3)cc2)CC1 [Compound 261, 4-((4-(4,4-dimethylcyclohexyl)phenyl)amino)tetrahydro-2H-thiopyran 1,1-dioxide]"
16,0.1 to 100,"CC1(C)CCC(c2ccc(NC3CCOCC3)cc2)CC1 [Compound 93, N-(4-(4,4-dimethylcyclohexyl)phenyl)tetrahydro-2H-pyran-4-amine]"
17,100 to 1000,"CC(=O)NC1CCC(Nc2ccc(C(C)(C)C)cc2)CC1 (single isomer, unassigned) [Compound 216A, N-(4-((4-(tert-butyl)phenyl)amino)cyclohexyl)acetamide]"

# Same assay, conditions: Homo sapiens, HT-1080, 20 h, ferroptosis inducer RSL3, 20 hours, ferroptosis inhibitory activity, Table 3
row,EC50 [nM],Structure (SMILES)
1,0.1 to 100,"CCc1cc(N2C[C@@H](C)O[C@@H](C)C2)ccc1NC1CC2(CC(N)C2)C1 (stereo partly drawn) [Compound 640, N2-(4-((25,6R)-2,6-dimethylmorpholino)-2-ethylphenyl)spiro[3.3]heptane-2,6-diamine]"
2,0.1 to 100,Cc1nc(N2CC(C)(C)OC(C)(C)C2)ccc1NC1CC2(CC(NCC(F)(F)F)C2)C1 (stereo not shown) [Compound 589]
3,0.1 to 100,"NC1CC2(C1)CC(Nc1ccc3cc(N4CCOCC4)ccc3c1)C2 (stereo not shown) [Compound 614, N2-(6-morpholinonaphthalen-2-yl)spiro[3.3]heptane-2,6-diamine]"
4,0.1 to 100,"COCCNc1ccc2cc(NC3CC4(CC(N)C4)C3)ccc2c1 (stereo not shown) [Compound 650, N2-(6-aminospiro [3.3]heptan-2-yl)-N6-(2-methoxyethyl) naphthalene-2,6-diamine]"
5,0.1 to 100,"CC1CN(c2ccc3cc(NC4CC(N)C4)ccc3c2)CCO1 (stereo not shown) [Compound 629, N^1-(6-(2-methylmorpholino)naphthalen-2-yl)cyclobutane-1,3-diamine]"
6,0.1 to 100,Cc1nc(N2CCN(CC(F)(F)F)C(C)C2)ccc1NC1CC2(CC(NC(N)=O)C2)C1 (stereo not shown) [Compound 603]
7,0.1 to 100,"Cc1nc(N2CC(C)OC(C)C2)ccc1NC1CCC2(CC1)CC(N)C2 (stereo not shown) [Compound 624, N^7-(6-(2,6-dimethylmorpholino)-2-methylpyridin-3-yl)spiro[3.5]nonane-2,7-diamine]"
8,0.1 to 100,"CCc1nc(N2CC(C)N(CC(F)(F)F)C(C)C2)c(F)cc1NC1CC(N)C1 (stereo not shown) [Compound 635, N1-(6-(3,5-dimethyl-4-(2,2,2-trifluoroethyl)piperazin-1-yl)-2-ethyl-5-fluoropyridin-3-yl)cyclobutane-1,3-diamine]"

row,Structure (SMILES),EC50 [nM]
1,"Cc1nc(N2CC[Si](C)(C)CC2)c(F)cc1NC1CC2(CC(N)C2)C1 (stereo not shown) [Compound 638, N^2-(6-(4,4-dimethyl-1,4-azasilinan-1-yl)-5-fluoro-2-methylpyridin-3-yl)spiro[3.3]heptane-2,6-diamine]",0.1 to 100

# Same assay, conditions: Homo sapiens, ferroptosis inducer RSL3, 20 hours, ferroptosis inhibitory activity, Table 2
row,Structure (SMILES),EC50 [nM]
1,"NC1CCC(Nc2ccc3cc(N4CCC(C(F)(F)F)CC4)ccc3c2)CC1 (stereo not shown) [Compound 561, N1-(6-(4-(trifluoromethyl)piperidin-1-yl)naphthalen-2-yl)cyclohexane-1,4-diamine]",0.1 to 100
2,"CC(C)(C)c1ccc(NC2CCN(C(N)=O)CC2)cc1 [Compound 178, 4-((4-(tert-butyl)phenyl)amino)piperidine-1-carboxamide]",1000 to 10000
